Structures can show the parent of a compound that is named as a salt. ± gives the standard deviation of the averaged measurements.
System: SK-LMS-1
Assay: relative viability vs DMSO control (72 h) (fraction); higher = more viable cells
Summary of the method: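 Serially diluted compound, 2.5 µl from source plates spanning 10 mM to 0.0002 mM, was added 24 h after sarcoma cell lines were seeded in 384-well plates at densities targeting 80–90% confluence. Plates then sat 72 h at 37 °C, 5% CO2, with 0.1% DMSO vehicle and a 5 µM positive control. Relative viability came from ATPLite as percent growth, averaged over up to triplicate wells, and was rescaled with 1 as full and 0 as none.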

Row | Compound | relative viability (0.00017 µM) | relative viability (0.00051 µM) | relative viability (0.00152 µM) | relative viability (0.00457 µM) | relative viability (0.01372 µM) | relative viability (0.04115 µM) | relative viability (0.1235 µM) | relative viability (0.3704 µM) | relative viability (1.111 µM) | relative viability (3.333 µM) | relative viability (10 µM) | relative viability (2 pM) | relative viability (5 pM) | relative viability (15 pM) | relative viability (50 pM) | relative viability (0.00014 µM) | relative viability (0.00041 µM) | relative viability (0.0012 µM) | relative viability (0.0037 µM) | relative viability (0.011 µM) | relative viability (200 fM) | relative viability (600 fM)
1 | COc1cccc2c1C(=O)c1c(O)c3c(c(O)c1C2=O)C[C@@](O)(C(=O)CO)C[C@@H]3O[C@H]1C[C@H](N)[C@H](O)[C@H](C)O1 [Doxorubicin Hydrochloride] | 0.998 ± 0.032 | 1.02 ± 0.038 | 1.02 ± 0.044 | 1.03 ± 0.024 | 0.967 ± 0.047 | 0.781 ± 0.011 | 0.649 ± 0.046 | 0.313 ± 0.025 | 0.209 ± 0.069 | 0.296 ± 0.0043 | 0.293 ± 0.0053 | – | – | – | – | – | – | – | – | – | – | –
2 | CO[C@H]1C[C@@H]2CC[C@@H](C)[C@@](O)(O2)C(=O)C(=O)N2CCCC[C@H]2C(=O)O[C@H]([C@H](C)C[C@@H]2CC[C@@H](OP(C)(C)=O)[C@H](OC)C2)CC(=O)[C@H](C)/C=C(\C)[C@@H](O)[C@@H](OC)C(=O)[C@H](C)C[C@H](C)/C=C/C=C/C=C/1C [Ridaforolimus] | 1.01 ± 0.067 | 0.903 ± 0.025 | 0.753 ± 0.016 | 0.67 ± 0.018 | 0.632 ± 0.029 | 0.594 ± 0.031 | 0.559 ± 0.022 | 0.563 ± 0.031 | 0.554 ± 0.021 | 0.5602 ± 0.0032 | 0.5145 ± 0.0018 | – | – | – | – | – | – | – | – | – | – | –
3 | Cc1cc(C)c(/C=C2\C(=O)Nc3ccccc32)[nH]1 [Semaxanib] | 0.927 ± 0.045 | 0.907 ± 0.044 | 0.897 ± 0.025 | 0.878 ± 0.033 | 0.897 ± 0.053 | 0.874 ± 0.039 | 0.872 ± 0.02 | 0.894 ± 0.018 | 0.905 ± 0.027 | 0.871 ± 0.033 | 0.811 ± 0.013 | – | – | – | – | – | – | – | – | – | – | –
4 | CN1CCC(COc2cnc(-c3cccc(Cn4nc(-c5cccc(C#N)c5)ccc4=O)c3)nc2)CC1 [Tepotinib] | 1.06 ± 0.027 | 1.05 ± 0.022 | 1.01 ± 0.037 | 1.05 ± 0.039 | 1 ± 0.047 | 0.833 ± 0.017 | 0.597 ± 0.019 | 0.526 ± 0.0067 | 0.489 ± 0.0072 | 0.461 ± 0.02 | 0.361 ± 0.028 | – | – | – | – | – | – | – | – | – | – | –
5 | COc1cc2c(Oc3ccc4[nH]c(C)cc4c3F)ncnc2cc1OCCCN1CCCC1 [Cediranib] | 1.01 ± 0.011 | 1.02 ± 0.028 | 1.02 ± 0.038 | 1.03 ± 0.052 | 0.989 ± 0.025 | 1.02 ± 0.042 | 0.98 ± 0.017 | 0.977 ± 0.025 | 0.925 ± 0.013 | 0.911 ± 0.029 | 0.462 ± 0.066 | – | – | – | – | – | – | – | – | – | – | –
6 | C[C@@H](c1ccc2nccn2c1)n1nnc2ncc(-c3cnn(C)c3)nc21 [Volitinib] | 1.03 ± 0.013 | 0.979 ± 0.016 | 0.975 ± 0.027 | 0.958 ± 0.027 | 0.763 ± 0.019 | 0.636 ± 0.017 | 0.548 ± 0.016 | 0.554 ± 0.024 | 0.546 ± 0.019 | 0.537 ± 0.016 | 0.538 ± 0.0092 | – | – | – | – | – | – | – | – | – | – | –
7 | CC1(C)CNc2cc(NC(=O)c3cccnc3NCc3ccncc3)ccc21 [Motesanib] | 1.04 ± 0.042 | 1.02 ± 0.013 | 1.024 ± 0.0066 | 1.02 ± 0.016 | 1.06 ± 0.025 | 1.03 ± 0.033 | 1.02 ± 0.04 | 1.04 ± 0.027 | 0.99 ± 0.037 | 0.986 ± 0.017 | 0.925 ± 0.02 | – | – | – | – | – | – | – | – | – | – | –
8 | N#CC[C@H](C1CCCC1)n1cc(-c2ncnc3[nH]ccc23)cn1 [Ruxolitinib] | 1.03 ± 0.012 | 1 ± 0.037 | 0.995 ± 0.036 | 1.03 ± 0.034 | 1.036 ± 0.0052 | 1.035 ± 0.0072 | 1.02 ± 0.021 | 1.03 ± 0.029 | 1.03 ± 0.039 | 0.986 ± 0.033 | 0.828 ± 0.02 | – | – | – | – | – | – | – | – | – | – | –
9 | Cc1nc(NC(=O)N2CCC[C@H]2C(N)=O)sc1-c1ccnc(C(C)(C)C(F)(F)F)c1 [Alpelisib] | 1.02 ± 0.024 | 1.04 ± 0.048 | 1 ± 0.063 | 1.01 ± 0.022 | 0.967 ± 0.046 | 0.951 ± 0.048 | 0.889 ± 0.043 | 0.8312 ± 0.0082 | 0.749 ± 0.055 | 0.666 ± 0.025 | 0.54 ± 0.044 | – | – | – | – | – | – | – | – | – | – | –
10 | CN1CCN(c2ccc3nc(-c4c(N)c5c(F)cccc5[nH]c4=O)[nH]c3c2)CC1 [Dovitinib] | 1.08 ± 0.053 | 1.09 ± 0.049 | 1.1 ± 0.037 | 1.14 ± 0.043 | 1.09 ± 0.063 | 1.12 ± 0.022 | 1.11 ± 0.015 | 1.07 ± 0.035 | 0.907 ± 0.017 | 0.654 ± 0.021 | 0.407 ± 0.0099 | – | – | – | – | – | – | – | – | – | – | –
11 | COc1cc2c(cc1O)CCN[C@]21CS[C@@H]2c3c(OC(C)=O)c(C)c4c(c3[C@H](COC1=O)N1[C@@H]2[C@H]2c3c(cc(C)c(OC)c3O)C[C@@H]([C@@H]1O)N2C)OCO4 [Trabectedin] | – | – | – | – | – | – | – | – | – | – | – | 1.06 ± 0.08 | 1.04 ± 0.026 | 1.03 ± 0.043 | 1.06 ± 0.045 | 1.07 ± 0.052 | 0.848 ± 0.04 | 0.255 ± 0.014 | 0.332 ± 0.006 | 0.35 ± 0.014 | 1.03 ± 0.076 | 1.06 ± 0.048
12 | C=CC(=O)Nc1cccc(Oc2nc(Nc3ccc(N4CCN(C)CC4)cc3)nc3ccsc23)c1 [Olmutinib] | 1.06 ± 0.047 | 1.08 ± 0.013 | 1.07 ± 0.044 | 1.076 ± 0.006 | 1.09 ± 0.029 | 1.06 ± 0.015 | 1.08 ± 0.013 | 1.05 ± 0.04 | 0.976 ± 0.033 | 0.843 ± 0.016 | 0.113 ± 0.03 | – | – | – | – | – | – | – | – | – | – | –
13 | CC(C)NC(=O)C1CCC(n2c(NC(=O)c3ccc(F)cc3)nc3ccc(CN4CCC(C(C)(C)O)CC4)cc32)CC1 (centres undefined) [Belizatinib] | 1.05 ± 0.024 | 1.06 ± 0.021 | 1.06 ± 0.039 | 1.07 ± 0.04 | 1.07 ± 0.069 | 1.11 ± 0.046 | 1.09 ± 0.023 | 1.04 ± 0.074 | 0.949 ± 0.05 | 0.758 ± 0.018 | 0.38 ± 0.021 | – | – | – | – | – | – | – | – | – | – | –
14 | CCN1CCN(Cc2ccc(Nc3ncc(F)c(-c4cc(F)c5nc(C)n(C(C)C)c5c4)n3)nc2)CC1 [Abemaciclib] | 1.03 ± 0.012 | 1.05 ± 0.019 | 1.05 ± 0.057 | 1.02 ± 0.033 | 1.04 ± 0.024 | 1.01 ± 0.021 | 0.945 ± 0.037 | 0.9498 ± 0.0093 | 0.926 ± 0.043 | 0.88 ± 0.042 | 0.873 ± 0.02 | – | – | – | – | – | – | – | – | – | – | –
15 | COc1c(OCCCN2CCOCC2)ccc2c1N=C(NC(=O)c1cnc(N)nc1)N1CCN=C21 [Copanlisib] | 1.05 ± 0.059 | 0.995 ± 0.035 | 0.964 ± 0.032 | 0.814 ± 0.035 | 0.744 ± 0.042 | 0.629 ± 0.014 | 0.539 ± 0.018 | 0.454 ± 0.017 | 0.365 ± 0.02 | 0.296 ± 0.014 | 0.302 ± 0.011 | – | – | – | – | – | – | – | – | – | – | –
16 | Cc1nc(-c2cn3c(n2)-c2ccc(-c4cnn(C(C)(C)C(N)=O)c4)cc2OCC3)n(C(C)C)n1 [Taselisib] | 0.978 ± 0.027 | 1.035 ± 0.0056 | 0.993 ± 0.043 | 0.9916 ± 0.0093 | 0.949 ± 0.021 | 0.833 ± 0.017 | 0.739 ± 0.018 | 0.676 ± 0.011 | 0.6 ± 0.023 | 0.454 ± 0.012 | 0.315 ± 0.016 | – | – | – | – | – | – | – | – | – | – | –
17 | O=C(Cc1ccc(-c2ccc(OCCN3CCOCC3)cc2)cn1)NCc1ccccc1 [KX2-391] | 1.03 ± 0.047 | 1.02 ± 0.02 | 1.05 ± 0.019 | 1 ± 0.038 | 0.99 ± 0.038 | 0.704 ± 0.034 | 0.537 ± 0.023 | 0.361 ± 0.0063 | 0.338 ± 0.021 | 0.344 ± 0.018 | 0.333 ± 0.0098 | – | – | – | – | – | – | – | – | – | – | –
18 | C[C@@H]1COCCN1c1cc(-c2ccnn2C)c2ccnc(-c3ccn[nH]3)c2n1 | 0.9973 ± 0.0066 | 0.992 ± 0.064 | 0.989 ± 0.033 | 1 ± 0.051 | 1 ± 0.024 | 0.928 ± 0.056 | 0.785 ± 0.035 | 0.571 ± 0.016 | 0.371 ± 0.025 | 0.271 ± 0.0038 | 0.234 ± 0.0024 | – | – | – | – | – | – | – | – | – | – | –
19 | Cc1cnc(Nc2ccc(OCCN3CCCC3)cc2)nc1Nc1cccc(S(=O)(=O)NC(C)(C)C)c1 [Fedratinib] | 1.01 ± 0.035 | 1 ± 0.068 | 1.04 ± 0.041 | 1.08 ± 0.062 | 1.04 ± 0.012 | 1.01 ± 0.042 | 0.99 ± 0.018 | 0.904 ± 0.034 | 0.7315 ± 0.0026 | 0.407 ± 0.011 | 0.0111 ± 0.0012 | – | – | – | – | – | – | – | – | – | – | –

Reference: the supplement of paper PMC10883282
